Results on three compounds are retold here after patent US20030105034A1, “Pyridine carboxy derivatives and an aminosugar” (Astion Deveopment A/S, priority 2001, published 2003).

“Also recorded” adds a separate entry of the source. Marks after values point to notes of the source that are not given here.

In test [1] the test system is tetradecanoyl phorbol acetate (TPA) induced ear inflammation. Briefly: TPA induced ear inflammation test in the mouse, Compound 122 compared to its components (Example 241). The test is classed as in vivo. The following applies: for Inhibition of ear swelling (%): versus vehicle group A, 3 h after TPA; for inhibition of ear swelling, result in words: Compound 122 7.0 mg, niacinamide 3.67 mg, N-acetylglucosamine 3.33 mg per application. From the text:
The objective of this study is to assess the effect of Compound 122 as compared to its components in the tetradecanoyl phorbol acetate (TPA) induced ear inflammation test in the mouse, a commonly employed method for screening and evaluation of antiinflammatory drugs. Locoid® cutaneous solution (0.1% hydrocortisone 17-butyrate) is used as a positive control.
The test articles are the complex of the invention prepared according to example 118 (Compound 122 in the following) and its components niacinamide and N-acetylglucosamine, all obtained from Astion A/S, Denmark.
The study is performed in female SPF NMRI mice of the stock Bom:NMRI from M & B A/S, Denmark. At start of the acclimatisation period the mice is in the weight range of 18-20 g. An acclimatisation period of 7 days is allowed.
On day 0 the test substances are applied in 20 μl volumes to the inner surface of the right ear 20 minutes before and again 20 minutes after TPA treatment. All groups are treated with 20 μl acetone on the left ear and with 20 μl TPA, 400 μg/ml, on the right ear.
Three hours after the TPA application the mice are sacrificed, the ears cut off and weighed.
The amount of niacinamide and N-acetylglucosamine administered to groups C and D corresponds exactly to the amount of the two substances present in Compound 122 administered to group B.
Mean weights and standard deviations are calculated. Percent inhibition of the oedema compared with group A is calculated for the groups B-E. Weights of the left ears are used to assess the comparability of the groups and to calculate differences in weight between left and right ear.
Ear swelling is determined as the difference between the weight of right and left ear. The following inhibition of ear swelling is observed in groups B-E: […]

Test [2] shares this test system. Briefly: TPA induced ear inflammation test in the mouse, two doses of two complexes (Example 239). The class given is in vivo. As to conditions: Locoid solution 0.1%, 0.02 mg per application; positive control; ears weighed 3 h after TPA. From the text: The objective of this study is to assess the effect of two doses of two chemical complexes of the invention topically administered in the tetradecanoyl phorbol acetate (TPA) induced ear inflammation test in the mouse, a commonly employed method for screening and evaluation of antiinflammatory drugs. Locoid® cutaneous solution (0.1% hydrocortisone 17-butyrate) is used as a positive control.
At start of the acclimatisation period the mice is in the weight range of 18-20 g. An acclimatisation period of 7 days is allowed.
On the day of arrival the animals is randomly allocated to 7 groups, each of 9 mice.
The test substances are applied in 20 μl volumes to the inner surface of the right ear on day 0. 20 minutes before and again 20 minutes after TPA treatment. All groups is treated with 20 μl acetone on the left ear and with 20 μl TPA, 400 μg/ml, on the right ear.
Three hours after the TPA application the mice are sacrificed, the ears cut off and weighed. Mean weights and standard deviations are calculated. Percent inhibition of the oedema compared with group 1 is calculated for the groups 2-7. Weights of the left ears is used to assess the comparability of the groups and to calculate differences in weight between left and right ear.

As for `CC(=O)N[C@H]1C(O)O[C@H](CO)[C@@H](O)[C@@H]1O` (stereo partly drawn) [N-acetylglucosamine], the “Inhibition of ear swelling (%)” value in test [1] (3.33 mg per application, group D) is recorded as 31* %. For the same compound, in test [1], the “inhibition of ear swelling, result in words” value is recorded as “only displayed a modest inhibition; also recorded: showed much lesser inhibition of ear swelling”.

`NC(=O)c1cccnc1` [Niacinamide]: the “Inhibition of ear swelling (%)” value in test [1] (3.67 mg per application, group C) is recorded as 31** %. In addition, the “inhibition of ear swelling, result in words” value in test [1] is listed as “only displayed a modest inhibition; also recorded: showed much lesser inhibition of ear swelling”.

In the case of `CCCC(=O)O[C@]1(C(=O)CO)CC[C@H]2[C@@H]3CCC4=CC(=O)CC[C@]4(C)[C@H]3[C@@H](O)C[C@@]21C` [Hydrocortisone 17-butyrate, hydrocortisone 17-butyrate], the “Inhibition of ear swelling (%)” value in test [1] (0.02 mg per application, group E, positive control) is recorded as 89*** %. In addition, the “inhibition of ear swelling” value in test [2] was 90%.
